Reference: US12655436B2, “Import of unnatural or modified nucleoside triphosphates into cells via nucleic acid triphosphate transporters” (The Scripps Research Institute, priority 2014, dated 2026)

How the values were obtained:
[1] = tested on: Polymerase; details: 10, 5, 2 or 1 μM, 30° C., 20 nM DNA
Procedure: Polymerase (15 μg/ml) is incubated at 30° C. in buffer (50 mM TRIS pH 7.5, 0.05% Tween 20, 6 mM MgSO4, 1 mM EDTA, 50 mM NaCl) with 20 nM DNA. […] Tubes are incubated at 30° C. and aliquots are taken at 0.33, 0.66, 1, 2, 5, and 15 mins from the 4 reaction tubes for quenching and 15% urea acrylamide gel analysis. 1 mM dNTPs are added to the remaining reaction tubes and after a further 10 mins an aliquot is taken for gel analysis (chase).

[2] = tested on: actively growing E. coli; details: for degradation of triphosphate in the presence of actively growing E. coli: preliminary characterization, HPLC and MALDI
Procedure: dNaMTP or d5SICSTP (10 mM each) were added to media to a final concentration of 0.25 mM. Cells were incubated with the substrate with shaking at 37° C. for 30 min and then pelleted (8,000 rfu for 5 min, 4° C.). An aliquot of the media fraction (40 μl) was mixed with acetonitrile (80 μl) to precipitate proteins, and then incubated at RT for 30 min. Samples were either analyzed immediately by HPLC or stored at −80° C. until analysis. Analysis began with centrifugation (12,000 rfu for 10 min, RT), then the pellet was discarded, and the supernatant was reduced to ˜20 μl, resuspended in 95% 0.1 M TEAB, pH 7.5; 5% acetonitrile, to a final volume of 50 μl, and analyzed by HPLC.
Samples were applied to a LC column (3 μm C18 300 Å, 250×4.6 mm) and subjected to a linear gradient of 0-40% with 20% 0.1 M TEAB, pH 7.5; 80% acetonitrile over 40 min at a flow rate of 1 ml/min.
Injection series included two extra control samples containing 5 nmol of dNaMTP or d5SICSTP. […] After peak integration, the ratio of the unknown peak to the control peak adjusted for the loss from the extraction step (62% and 70% loss for dNaM and d5SICS, respectively), provided a measure of the amount of each of the moieties in a sample. To determine the relative concentrations of unnatural nucleotide inside a cell, the amount of imported unnatural nucleotide was then divided by the volume of cells, which was calculated from the volume of a single E. coli cell of (1 μm^3) multiplied by the number of cells in each culture (OD600 of 1.0 equal to 1×10^9 cells per ml). An RpNTT2 sample was used as a negative control and its signal was subtracted to account for any incomplete washing of nucleotide species from the media.

[3] = tested on: PtNTT2; test: Uptake of d5SICSTP or dNaMTP into E. coli C41(DE3) expressing PtNTT2, media and cytoplasmic fractions by HPLC; assay type: cell-based, Escherichia coli C41(DE3) expressing PtNTT2
Procedure: (§1) E. coli C41(DE3) freshly transformed with pCDF-1b-PtNTT2 was grown in 2×YT with streptomycin overnight, then diluted (1:100) into fresh 2×YT medium (1 ml of culture per uptake with [α-^32P]-dATP; 2 ml of culture per uptake with d5SICSTP or dNaMTP) supplemented with 50 mM potassium phosphate (KPi) and streptomycin. […] Cells were grown to an OD600 of ˜0.6 and expression was induced by the addition of IPTG (1 mM). The culture was allowed to grow for another hour (final OD600 ˜1.2) and then assayed directly for uptake as described below using a method adapted from Haferkamp, et al.
To analyze the intracellular dephosphorylation of unnatural nucleoside triphosphates, cell pellets were subjected to 3×100 μl washes of ice cold KPi (50 mM). Pellets were then resuspended in 250 μl of ice cold KPi (50 mM) and lysed with 250 μl of Lysis buffer L7 of the PureLink Quick Plasmid DNA Miniprep Kit (200 mM NaOH, 1% w/v SDS), after which the resulting solution was incubated at RT for 5 min. Precipitation buffer N4 (350 μl, 3.1 M potassium acetate, pH 5.5) was added, and the sample was mixed to homogeneity.

[4] = tested on: E. coli C41(DE3); test: pINF replication in E. coli C41(DE3)-pACS: growth (OD600) and relative plasmid copy number; details: 0.25 mM triphosphates; absence of pINF
Procedure: A single clone of freshly transformed E. coli C41(DE3)-pACS was grown overnight in 2×YT medium (3 ml) supplemented with streptomycin (50 μg/ml) and KPi (50 mM). After 100-fold dilution into the same medium (300 ml) and outgrowth at 37° C. to an OD600 of 0.20, IPTG was added to a final concentration of 1 mM to induce the expression of PtNTT2. After 40 min, the cultures were rapidly cooled to 0° C., washed with sterile water (3×150 ml), and resuspended in 10% glycerol (1.5 ml).
An aliquot of electrocompetent C41(DE3)-pACS cells (50 μL) was mixed with pINF (2 μL, 400 ng), and electroporated in a 0.2 cm gap cuvette. […]
The cells were resuspended in fresh 2×YT medium (1.5 ml, 50 μg/ml streptomycin, 100 μg/ml ampicillin, 1 mM IPTG, 50 mM KPi, 0.25 mM dNaMTP, 0.25 mM d5SICSTP) and grown at 37° C. with shaking (250 rpm). At defined time points, OD600 was determined and aliquots (100 μl) were removed and centrifuged (8000 rfu for 5 min, 4° C.). Spent media was analyzed for nucleotide composition by HPLC and pINF was recovered by spin column purification (Zymo Research Corp.). […]
After recovery, the cells were centrifuged (4000 rfu for 5 min, 4° C.), spent media (0.15 ml) was removed and analyzed for nucleotide composition by HPLC. […]

[5] = tested on: PtNTT2; test: [α-32P]-dATP uptake into E. coli C41(DE3) expressing NTT, TLC/phosphorimaging; assay type: cell-based, Phaeodactylum tricornutum; details: for dATP transport into cells by NTT: PtNTT2
Procedure: as §1
(§2) To analyze the intracellular dephosphorylation of dATP, after induction of an NTT, an uptake reaction was initiated by the addition of dATP (spiked with [α-^32P]-dATP) to a final concentration of 0.25 mM, followed by incubation at 37° C. with shaking for 30 min. A culture was then centrifuged (8,000 rfu for 5 min, RT). Supernatant was analyzed by thin layer chromatography (TLC), while cell pellets were washed 3 times with ice cold KPi (50 mM, 100 μL) to remove excess radioactive substrate, lysed with NaOH (0.2 M, 100 μl) and centrifuged (10,000 rfu for 5 min RT) to pellet the cell debris, before the supernatant (1.5 μl) was analyzed by TLC.
Samples (1 μl) were applied on a 0.5 mm polyethyleneimine cellulose TLC plate and eluted first by sodium formate (0.5 M, pH 3.0) for 30 sec, then by sodium formate (2.5 M, pH 3.0) for 2.5 m, and finally by sodium formate (4.0 M, pH 3.0) for 40 m. Plates were dried using a heat gun and quantified by phosphorimaging and imaging software.
The experiments described herein illustrate the plasmid-based expression of eight different NTTs in E. coli C41(DE3) (Table 9A). The uptake of [α-^32P]-dATP was examined as a surrogate for the unnatural triphosphates (FIG. 5).

[6] = tested on: TpNTT2; test: as above; assay type: cell-based, Thalassiosira pseudonana
Procedure: as §1
as §2, with “TLC. […]” for “TLC.”

[7] = tested on: PamNTT2; test: as above; assay type: cell-based, Protochlamydia amoebophila
Procedure: as §1
as §2, with “TLC. […]” for “TLC.”

[8] = tested on: PamNTT5; test: as above; assay type: cell-based, Protochlamydia amoebophila
Procedure: as §1
as §2, with “TLC. […]” for “TLC.”

[9] = Nucleotide extraction from cells for HPLC analysis: recovery and triphosphate decomposition; set-up: species or system E. coli; details: ratio of 3P composition before and after extraction
Procedure: To minimize the effect of the lysis and triphosphate extraction protocols on the decomposition of nucleoside triphosphate within the cell, the following extraction procedure was discovered that led to an unexpectedly highest recovery with and low extent of decomposition (Table 9). Cells were grown, washed, and then 5 nmol of either dNaMTP or d5SICSTP was added to the pellets, which were then subjected to various types of extractions including boiling water, hot ethanol, cold methanol, freeze and thaw, lysozyme, glass beads, NaOH, trichloroacetic acid (TCA) with Freon, and perchloric acid (PCA) with KOH. The recovery and composition of the control was quantified by HPLC. […] Pellets were resuspended in ice cold KPi (50 mM, 250 μl) before addition of NaOH to decrease dephosphorylation after cell lysis (Method 4).

## Cc1ccc2c(=S)n([C@H]3C[C@H](O)[C@@H](CO)O3)ccc2c1 [(d)5SICS]
[1]
  addition to DNA primer by polymerase (gel band shift): extension by one base

## COc1cc2ccccc2cc1[C@H]1C[C@H](O)[C@@H](CO)O1 [(d)NaM]
[1]
  addition to DNA primer by polymerase (gel band shift): extension by one base

## O=P(O)(O)O [KPi, potassium phosphate, reference compound]
[2]; growing bacterial culture
  inhibition of dephosphorylation of unnatural triphosphates: significantly inhibited

## Cc1ccc2c(=S)n([C@H]3C[C@H](O)[C@@H](COP(=O)(O)OP(=O)(O)OP(=O)(O)O)O3)ccc2c1 [d5SICSTP]
[3]
  import into E. coli by PtNTT2: efficiently imported
[2]
  degradation of triphosphate in the presence of actively growing E. coli: degraded
[4]
  effect of added triphosphates on E. coli growth / toxicity: only a slight decrease in growth

## Nc1ncnc2c1ncn2[C@H]1C[C@H](O)[C@@H](COP(=O)(O)OP(=O)(O)OP(=O)(O)O)O1 [dATP]
[5]; 1 mM IPTG induction, media containing 50 mM KPi
  [α-32P]-dATP uptake as a function of transporter induction: maximal
[5]
  dATP transport into cells by NTT: efficiently transported
[5]; listed as [α-^32P]-dATP
  dATP transport into cells by NTT: significantly more active
[6]
  dATP transport into cells by NTT: efficiently transported
[7]
  dATP uptake by NTT: measurable uptake
[8]
  dATP uptake by NTT: measurable uptake
[2]; KPi in growth medium
  extracellular stability in the presence of potassium phosphate (KPi): significantly increased

## COc1cc2ccccc2cc1[C@H]1C[C@H](O)[C@@H](COP(=O)(O)OP(=O)(O)OP(=O)(O)O)O1 [dNaMTP]
[3]
  import into E. coli by PtNTT2: efficiently imported
[2]
  degradation of triphosphate in the presence of actively growing E. coli: degraded
[4]
  effect of added triphosphates on E. coli growth / toxicity: only a slight decrease in growth

## COc1cc2ccccc2cc1[C@H]1C[C@H](O)[C@@H](CO)O1 [dNaM]
[9]; Method 1 TCA with Freon
  Triphosphate stability, %: 92%
[9]; Method 2 PCA w/KOH
  Triphosphate stability, %: 98%
[9]; Method 3 NaOH w/KOAc
  Triphosphate stability, %: 86%
[9]; Method 4 NaOH w/KOAc supplemented w/ KPi (50 mM)
  Triphosphate stability, %: 99%
